Each structure is given as a SMILES string.

The target of this assay is T1, 5-hydroxytryptamine receptor 2C (Homo sapiens, UniProt P28335).
T1 sequence (P28335 whole entry): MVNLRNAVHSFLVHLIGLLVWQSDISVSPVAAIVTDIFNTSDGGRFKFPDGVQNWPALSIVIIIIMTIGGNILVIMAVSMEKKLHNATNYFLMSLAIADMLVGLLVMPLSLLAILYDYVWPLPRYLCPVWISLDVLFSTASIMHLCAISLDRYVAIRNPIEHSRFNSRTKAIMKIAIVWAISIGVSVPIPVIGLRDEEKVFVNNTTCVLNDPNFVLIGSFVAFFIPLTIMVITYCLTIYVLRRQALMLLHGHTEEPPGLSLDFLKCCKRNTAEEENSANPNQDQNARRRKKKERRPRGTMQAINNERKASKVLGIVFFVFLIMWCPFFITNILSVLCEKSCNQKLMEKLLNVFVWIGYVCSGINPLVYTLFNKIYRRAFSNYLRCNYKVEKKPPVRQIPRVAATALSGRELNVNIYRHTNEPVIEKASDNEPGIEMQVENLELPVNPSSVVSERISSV
The assay can be described thus: Displacement of [3H]5-HT from human recombinant 5-HT2C receptor expressed in mouse 3T3 cells. A general note: In a radioligand displacement assay an active substance lowers the binding of a labelled ligand.

Consider `CNc1cc(NS(=O)(=O)c2ccc(N)cc2)cc(NC)n1` [Ro-63-0563], for which the Ki was 2.04 µM.

What is called Ki is a dissociation constant, usually derived from enzyme kinetics or from competition with a known ligand.

For the origin of these results see BindingDB's records for doi:10.1021/jm5003759 (University of Copenhagen, 2014).
